Our source for the IC50 values is US12331068B2, “Compositions and methods for inhibiting CD73” (Peloton Therapeutics, Inc., priority 2018, dated 2025).

Where two headings read alike, the source gives them in different places.

Assay [1] addresses T1, Human CD73 (Homo sapiens, UniProt P21589).
T1 construct: purchased R&D Systems; host or cells: CHO cells
T1 sequence (P21589 27-549): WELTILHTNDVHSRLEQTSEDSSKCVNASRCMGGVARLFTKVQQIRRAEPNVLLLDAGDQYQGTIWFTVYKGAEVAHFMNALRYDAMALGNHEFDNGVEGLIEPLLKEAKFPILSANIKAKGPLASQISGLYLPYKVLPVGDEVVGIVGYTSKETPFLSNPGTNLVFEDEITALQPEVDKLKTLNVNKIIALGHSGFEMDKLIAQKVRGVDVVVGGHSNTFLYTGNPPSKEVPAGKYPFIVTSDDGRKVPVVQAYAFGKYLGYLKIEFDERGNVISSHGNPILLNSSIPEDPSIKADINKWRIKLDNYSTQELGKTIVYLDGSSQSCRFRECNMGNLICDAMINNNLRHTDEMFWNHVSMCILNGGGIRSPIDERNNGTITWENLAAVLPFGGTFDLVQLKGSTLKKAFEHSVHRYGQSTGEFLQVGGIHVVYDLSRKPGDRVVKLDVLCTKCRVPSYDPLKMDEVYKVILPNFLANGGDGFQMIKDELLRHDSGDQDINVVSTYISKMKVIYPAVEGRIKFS
The assay can be described thus: CD73 Enzyme Assay (EnzChek PNP/MESG kinetic readout of AMP hydrolysis). The following applies: 0.25 nM hCD73, 25 μM AMP. It counts as biochemical. The protocol: A compound of the present disclosure (5 μL) was transferred to a 384-well assay plate. The compound was added in a 15 point, 3-fold serial dilution (300 μM to 0.0002 μM) in DMSO. […] The plate was immediately placed in a plate reader (Synergy 2 or Spark 10), and a reading was taken every minute for 10 to 20 minutes in a kinetic run at 360 nm. The linear portion of the curve was used to determine the observed rate (initial velocity). Low signal controls containing 100 μM adenosine 5′-(α,β-methylene) diphosphate and high signal controls containing no compound were measured for each plate.
IC50 values were calculated using Dotmatics template equation for 4-parameter fit. Results are expressed as % inhibition using the following equation: […]

Assay [2] has as its target T2, CD73 on U138 human neuroglioma cells (Homo sapiens, UniProt P21589).
T2 construct: U138 cells were obtained from ATCC and cultured in DMEM with 10% FBS; host or cells: U138 human neuroglioma cells
T2 sequence (P21589 27-549): T1 sequence (P21589 27-549)
The assay can be described thus: CD73 Cell-Based Assay (inorganic phosphate from AMP, malachite green). The following applies: AMP substrate, 2 hours at 37° C., read-out: CD73 Cell-Based assay IC50. On the procedure: U138 human neuroglioma cells were used in these experiments. U138 cells were obtained from ATCC and cultured in DMEM with 10% FBS. 2500 cells were seeded into 96-well plate with 100 μL of media the day before the experiment. […] After washing, 100 μL of buffer was added to each well, then 100 μL of a mixture of AMP substrate (200 μM) and diluted compound was added to each well. The cells were incubated at 37° C. (with 5% CO2) for 2 hours. 50 μL of supernatant was transferred to a 96-well assay plate and the concentration of inorganic phosphate was determined using malachite green reagent (R&D System; Cat: DY996).

Where [3] appears, read: read-out: CD73 Enzyme Assay IC50.

On to `C[C@H](Nc1c(C#N)c(Cl)nc2c1cnn2[C@@H]1O[C@H](CS(=O)(=O)CP(=O)(O)O)[C@@H](O)[C@H]1O)c1cccc(F)c1` [Compound 180], for which the IC50 in assay [1] (setting [3]) and in assay [2] was under 10 nM throughout. For the compound `NC(=O)c1c(Cl)nc2c(ccn2C2O[C@H](COCP(=O)(O)O)[C@@H](O)[C@H]2O)c1NC1CCCC1` (some centres unmarked) [Compound 39], the half-inhibitory concentration (IC50) (commonly the midpoint of a concentration-inhibition curve) in assay [1] (setting [3]) is under 10 nM; in assay [2], 10 to 100 nM.

Consider `N#Cc1nc2c(ccn2[C@@H]2O[C@H](CS(=O)(=O)CP(=O)(O)O)[C@@H](O)[C@@H]2F)c(NC2CC(F)(F)C2)c1C#N` [Compound 174], for which the IC50 in assay [1] (setting [3]) and in assay [2] was 10 to 100 nM throughout. On to `N#Cc1c(Cl)nc2c(cnn2[C@@H]2O[C@H](COCP(=O)(O)O)[C@@H](O)[C@@H]2F)c1N1CCC(F)(F)C1` [Compound 99, ((((2R,3R,4S,5R)-5-(6-chloro-5-cyano-4-(3,3-difluoropyrrolidin-1-yl)-1H-pyrazolo[3,4-b]pyridin-1-yl)-4-fluoro-3-hydroxytetrahydrofuran-2-yl)methoxy)methyl)phosphonic acid], for which the IC50 in assay [1] (setting [3]) was over 100 nM. `N#Cc1nc2c(ccn2[C@@H]2O[C@H](CS(=O)(=O)CP(=O)(O)O)[C@@H](O)[C@H]2O)c(NC2CC3(CC3)C2)c1Cl` [Compound 221]: the IC50 in assay [1] (setting [3]) and in assay [2] was under 10 nM in each case. For `N#Cc1c(Cl)nc2c(ccn2[C@@H]2O[C@H](COCP(=O)(O)O)[C@@H](O)[C@H]2O)c1NC1CCCC1` [Compound 1, ((((2R,3S,4R,5R)-5-(6-chloro-5-cyano-4-(cyclopentylamino)-1H-pyrrolo[2,3-b]pyridin-1-yl)-3,4-dihydroxytetrahydrofuran-2-yl)methoxy)methyl)phosphonic acid], the IC50 in assay [1] (setting [3]) and in assay [2] was under 10 nM each time. `N#Cc1c(Cl)nc2c(cnn2[C@@H]2O[C@H](COCP(=O)(O)O)[C@@H](O)[C@H]2O)c1N1CC(F)(F)C1` [Compound 78]: the IC50 in assay [1] (setting [3]) and in assay [2] was under 10 nM in each case. Take `N#Cc1c(Cl)nc2c(ccn2[C@@H]2O[C@H](COCP(=O)(O)O)[C@@H](O)[C@H]2O)c1N1CCC(F)(F)C1` [Compound 13, ((((2R,3S,4R,5R)-5-(6-chloro-5-cyano-4-(3,3-difluoropyrrolidin-1-yl)-1H-pyrrolo[2,3-b]pyridin-1-yl)-3,4-dihydroxytetrahydrofuran-2-yl)methoxy)methyl)phosphonic acid]: the IC50 in assay [1] (setting [3]) and in assay [2] was under 10 nM throughout. As to `C[C@@H](Nc1c(C#N)c(Cl)nc2c1ccn2[C@@H]1O[C@H](COP(=O)(O)CP(=O)(O)O)[C@@H](O)[C@H]1O)c1ccc(F)cc1` [Compound 34], the IC50 in assay [1] (setting [3]) and in assay [2] was under 10 nM each time. Turning to `N#Cc1c(Cl)nc2c(ccn2[C@@H]2O[C@H](COP(=O)(O)CP(=O)(O)O)[C@@H](O)[C@@H]2F)c1NC1CC(F)(F)C1` [Compound 228], the IC50 in assay [1] (setting [3]) and in assay [2] was under 10 nM throughout. As for `N#Cc1c(Cl)nc2c(ncn2[C@@H]2O[C@H](COP(=O)(O)CP(=O)(O)O)[C@@H](O)[C@H]2O)c1NC1CCCC1` [Compound 209], the IC50 in assay [1] (setting [3]) and in assay [2] was under 10 nM each time.

As for `N#Cc1c(Cl)nc2c(cnn2[C@@H]2O[C@H](COP(=O)(O)CP(=O)(O)O)[C@@H](O)[C@@H]2F)c1N1CCC(F)(F)C1` [Compound 95, (((((2R,3R,4S,5R)-5-(6-chloro-5-cyano-4-(3,3-difluoropyrrolidin-1-yl)-1H-pyrazolo[3,4-b]pyridin-1-yl)-4-fluoro-3-hydroxytetrahydrofuran-2-yl)methoxy)(hydroxy)phosphoryl)methyl)phosphonic acid], the IC50 in assay [1] (setting [3]) and in assay [2] was under 10 nM each time. For `C[C@H](Nc1c(C#N)c(Cl)nc2c1cnn2[C@@H]1O[C@H](CS(=O)(=O)CP(=O)(O)O)[C@@H](O)[C@H]1O)c1ccc(F)cc1` [Compound 184, (((((2S,3S,4R,5R)-5-(6-chloro-5-cyano-4-(((S)-1-(4-fluorophenyl)ethyl)amino)-1H-pyrazolo[3,4-b]pyridin-1-yl)-3,4-dihydroxytetrahydrofuran-2-yl)methyl)sulfonyl)methyl)phosphonic acid], the IC50 in assay [1] (setting [3]) and in assay [2] was under 10 nM throughout. With `N#Cc1nc2c(ccn2[C@@H]2O[C@H](CS(=O)(=O)CP(=O)(O)O)[C@@H](O)[C@H]2O)c(NC2CC(F)(F)C2)c1C#N` [Compound 177], the IC50 in assay [1] (setting [3]) and in assay [2] was under 10 nM in each case.

As to `N#Cc1nc2c(ccn2[C@@H]2O[C@H](COP(=O)(O)CP(=O)(O)O)[C@@H](O)[C@H]2O)c(NC2CCCC2)c1Cl` [Compound 211], the IC50 in assay [1] (setting [3]) and in assay [2] was under 10 nM each time. Take `N#Cc1c(Cl)nc2c(ncn2[C@@H]2O[C@H](COCP(=O)(O)O)[C@@H](O)[C@H]2O)c1N1CCC(F)(F)C1` [Compound 94, ((((2R,3S,4R,5R)-5-(5-chloro-6-cyano-7-(3,3-difluoropyrrolidin-1-yl)-3H-imidazo[4,5-b]pyridin-3-yl)-3,4-dihydroxytetrahydrofuran-2-yl)methoxy)methyl)phosphonic acid]: the IC50 in assay [1] (setting [3]) and in assay [2] was under 10 nM each time. With `N#Cc1c(Cl)nc2c(ccn2[C@@H]2O[C@H](COCP(=O)(O)O)[C@@H](O)[C@H]2O)c1N[C@H]1CCC(F)(F)C1` [Compound 4], the IC50 in assay [1] (setting [3]) and in assay [2] was under 10 nM each time. As to `CNC(=O)c1c(Cl)nc2c(ccn2C2O[C@H](COCP(=O)(O)O)[C@@H](O)[C@H]2O)c1NC1CCCC1` (some centres unmarked) [Compound 40], the IC50 in assay [1] (setting [3]) fell in the range of 10 to 100 nM. Still for that read-out and setting: the result for `N#Cc1c(OCCO)nc2c(ccn2[C@@H]2O[C@H](COCP(=O)(O)O)[C@@H](O)[C@H]2O)c1N1CC2CCCC2C1` (some centres unmarked) [Compound 52] reads over 100 nM; that for `C[C@@H](Nc1c(C#N)c(Cl)nc2c1cnn2[C@@H]1O[C@H](COP(=O)(O)CP(=O)(O)O)[C@@H](O)[C@H]1O)c1ccc(F)cn1` [Compound 258], under 10 nM; that for `N#Cc1c(OCCO)nc2c(ccn2[C@@H]2O[C@H](COCP(=O)(O)O)[C@@H](O)[C@H]2O)c1NC1CCCC1` [Compound 2], 10 to 100 nM.

`Nc1ncnc2c1ncn2[C@@H]1O[C@H](COP(=O)(O)CP(=O)(O)O)[C@@H](O)[C@H]1O` [adenosine 5′-(α,β-methylene) diphosphate, reference compound]: the IC50 in assay [1] (low signal control compound, read-out: IC50) is 50 nM.

Turning to `C[C@H](Nc1c(C#N)c(Cl)nc2c1cnn2[C@@H]1O[C@H](COP(=O)(O)CP(=O)(O)O)[C@@H](O)[C@H]1O)c1ccc(F)cn1` [Compound 271], the 50% inhibitory concentration (IC50) in assay [1] (setting [3]) was under 10 nM. Take `C[C@H](Nc1c(C#N)c(Cl)nc2c1cnn2[C@@H]1O[C@H](COP(=O)(O)CP(=O)(O)O)[C@@H](O)[C@H]1O)c1ccccc1F` [Compound 260]: the IC50 in assay [1] (setting [3]) was under 10 nM. Consider `N#Cc1c(Cl)nc2c(ccn2[C@@H]2O[C@H](COCP(=O)(O)O)[C@@H](O)[C@@H]2F)c1N1CCC(F)(F)C1` [Compound 98], for which, in assay [1] (setting [3]), the IC50 lay in the range of 10 to 100 nM. For `N#Cc1nc2c(ccn2[C@@H]2O[C@H](CS(=O)(=O)CP(=O)(O)O)[C@@H](O)[C@@H]2F)c(N)c1C#N` [Compound 189], in assay [1] (setting [3]), the IC50 is over 100 nM. Still for that read-out and setting: to `C[C@@H](Nc1c(C#N)c(Cl)nc2c1cnn2[C@@H]1O[C@H](COP(=O)(O)CP(=O)(O)O)[C@@H](O)[C@H]1O)c1ccc(F)cc1` [Compound 270] belongs under 10 nM; to `N#Cc1c(Cl)nc2c(ncn2[C@@H]2O[C@H](COCP(=O)(O)O)[C@@H](O)[C@@H]2F)c1N1CCC(F)(F)C1` [Compound 100], 10 to 100 nM.
